In patent US20160295854A1, “COMPOSITION AND METHOD FOR EX-VIVO IMMUNOMODULATION AND/OR PRESERVATION OF ORGANS, METHODS AND USE” (UNIAO BRASILEIRA DE EDUCACAO E ASSISTENCIA , MANTENEDORA DA …, priority 2014, published 2016):

Tested on: MARCH-I
Test: MARCH-I mRNA in DCs by real time PCR
Assay type: cell-based, mice (Mus musculus)
Procedure: The supernatants were collected and used for analyzing cytokine. The cells were further treated with 20 ng/ml of Rapamycin (Cell Signaling), 1 μg/ml of Cyclosporine A (Roche) or 20 ng/ml of IL-10 recombinant murine (R&D System) for 24 h and the total RNA was removed.
The total RNA was isolated from the DCs treated using the kit RNAeasy (Qiagen), according to the manufacturer instructions. The total purified RNA concentration was determined with the kit Qubit® RNA Assay Kit (Invitrogen), read in the Qubit® Fluorometer (Invitrogen). 50 ng of the RNA had reverse transcriptase with 100 U of Sensiscript (Qiagen). DNA concentrations were determined with the kit Qubit® dsDNA HS Assay (Invitrogen), read in the Qubit® Fluorometer (Invitrogen). In a final volume of 10 μL, 8 ng of cDNA were applied using some assays Taqman® Gene Expression (Applied Biosystems): IL10 (Mm00439614_m1), March1 (Mm00613524_m1) and β-actin (4352933E), according to the manufacturer recommendations.
The quantitative real time PCR was performed in the instrument StepOne™ Real-Time PCR System (Applied Biosystems). The relative levels of mRNA were calculated according to the comparative method of Ct, described by […] & LIVAK (2008). The β-actin constituent gene was used as setter. Non-treated DCs served as reference for OVA or Hsp70-treated DCs.
After that, IL-10 mRNA levels were analyzed by Real-time PCR. The β-actin was used as a setter. The IL-10 concentration was measured in the cultures supernatant by flow cytometry. […] (C) As in A, however the MARCH-I mRNA levels were analyzed by Real-time PCR. […] DCs IL-10 KO were also treated with Recombinant IL-10. All treatments were performed for 24 h and MARCH-I mRNA levels were analyzed by Real-time PCR. […] After this period, grafts were sutured in the BALB/c animals' back and the acceptance was daily monitored. Graphs expressed on average ±SEM. *, p<0.05; **, p<0.01; ***, […]. n=3-5 mice per group. Representative results of 3 independent experiments.
After this period, the MARCH-I expression increase was analyzed by Real-time PCR.

Hsp70: recombinant Mycobacterium tuberculosis Hsp70 (DnaK) produced in Escherichia coli BL21, LPS removed
MARCH-I mRNA levels in DCs IL-10 KO (FIG. 11 D) (DCs from IL-10 knockout animals, 24 h, compared with DCs WT): did not present an increase
increase in the MARCH-I mRNA (FIG. 11 C) (DCs isolated from LNs, 24 h): 20 times
MARCH-I induction on DCs regarding the basal medium (FIG. 24) (lymph node DCs, 24 hours, Hsp70 30 μg/mL, Rapamycin 20 ng/ml, Cyclosporine A 1 μg/ml, IL-10 20 ng/ml): only treatment able to induce MARCH-I
